pEC50, pIC50: −log10 of the molar value.
Key:
[1] = tested on: SKBR3 cells; assay: SKBR3 Cell Viability Assay (CellTiter Glo); format: cell-based; conditions: Homo sapiens, SK-BR-3, 72 h, CellTiter Glo luminescence, read-out: MCL-1 CV SKBR3 EC50
Outline: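 SKBR3 cells (6,000/well) in McCoy 5A + 10% FBS exposed to serially diluted compound for 72 h at 37° C., 5% CO2. Viability by CellTiter Glo luminescence; % inhibition normalized to DMSO (negative) and 10 μM puromycin (positive).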

[2] = molecular target: MCL-1/Bim interaction (recombinant human MCL-1 protein, residues 171-327; biotinylated human Bim peptide, residues 51-76) (Homo sapiens (Human), UniProt Q07820); assay: MCL-1/Bim Binding AlphaLISA Assay; conditions: 0.0625 nM 6xHis-Mcl-1 (171-327), 0.0625 nM biotinylated-Bim peptide
Chain of MCL-1/Bim interaction (recombinant human MCL-1 protein, residues 171-327; biotinylated human Bim peptide, residues 51-76) (Q07820 171-327): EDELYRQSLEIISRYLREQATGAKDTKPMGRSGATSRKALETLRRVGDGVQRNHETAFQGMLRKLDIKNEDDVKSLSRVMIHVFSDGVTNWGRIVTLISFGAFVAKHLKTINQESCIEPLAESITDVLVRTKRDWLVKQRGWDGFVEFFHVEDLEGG
Outline: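 AlphaLISA with 0.0625 nM His-tagged MCL-1 (171-327) and 0.0625 nM biotinylated Bim (51-76) in 20 mM Hepes pH 7.5, 150 mM NaCl, 0.002% Brij 35, 1 mM DTT, 0.01% BSA. Compound preincubated 1 h with MCL-1, then Bim 2 h, acceptor beads 1 h, donor beads 1 h; percent inhibition against DMSO and no-protein/no-peptide controls.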

| SMILES | pEC50 [1] | pIC50 [2] |
| --- | --- | --- |
| CO[C@H]1/C=C/C[C@H](C)C[S@@](=O)(NC(=O)c2cc3n(n2)CCOC3)=NC(=O)c2ccc3c(c2)N(C[C@@H]2CC[C@H]21)C[C@@]1(CCCc2cc(Cl)ccc21)CO3 [Example 424] | 6.83 | 10.43 |
| CO[C@H]1/C=C/C[C@H](C)C[S@@](=O)(NC(=O)C2CC2c2cnn(C)c2)=NC(=O)c2ccc3c(c2)N(C[C@@H]2CC[C@H]21)C[C@@]1(CCCc2cc(Cl)ccc21)CO3 (some centres unmarked) [Example 425] | 6.77 | 10.11 |
| CO[C@H]1/C=C/C[C@H](C)C[S@@](=O)(NC(=O)[C@H]2C[C@@H]2c2cccnc2)=NC(=O)c2ccc3c(c2)N(C[C@@H]2CC[C@H]21)C[C@@]1(CCCc2cc(Cl)ccc21)CO3 [Example 426] | 6.50 | 10.04 |
| CO[C@H]1/C=C/C[C@H](C)C[S@@](=O)(NC(=O)[C@H]2CCOC2)=NC(=O)c2ccc3c(c2)N(C[C@@H]2CC[C@H]21)C[C@@]1(CCCc2cc(Cl)ccc21)CO3 [Example 427] | 6.48 | 9.98 |
| CO[C@H]1/C=C/C[C@H](C)C[S@@](=O)(NC(=O)NC2COC2)=NC(=O)c2ccc3c(c2)N(C[C@@H]2CC[C@H]21)C[C@@]1(CCCc2cc(Cl)ccc21)CO3 [Example 428] | 6.78 | 10.16 |
| CO[C@H]1/C=C/C[C@H](C)C[S@@](=O)(NC(=O)c2cc3c(s2)CCOC3)=NC(=O)c2ccc3c(c2)N(C[C@@H]2CC[C@H]21)C[C@@]1(CCCc2cc(Cl)ccc21)CO3 [Example 429] | 6.58 | 9.89 |
| CO[C@H]1/C=C/C[C@H](C)C[S@@](=O)(NC(=O)c2ccc3c(c2)CCOC3)=NC(=O)c2ccc3c(c2)N(C[C@@H]2CC[C@H]21)C[C@@]1(CCCc2cc(Cl)ccc21)CO3 [Example 430] | 6.86 | 9.77 |
| CO[C@H]1/C=C/C[C@H](C)C[S@@](=O)(NC(=O)c2ccc3ncnn3c2)=NC(=O)c2ccc3c(c2)N(C[C@@H]2CC[C@H]21)C[C@@]1(CCCc2cc(Cl)ccc21)CO3 [Example 432] | 6.77 | 10.15 |
| CO[C@H]1/C=C/C[C@H](C)C[S@@](=O)(NC(=O)N[C@@H]2C[C@H]2C)=NC(=O)c2ccc3c(c2)N(C[C@@H]2CC[C@H]21)C[C@@]1(CCCc2cc(Cl)ccc21)CO3 [Example 433] | 6.40 | 9.88 |
| CO[C@H]1/C=C/C[C@H](C)C[S@@](=O)(NC(=O)c2cc(C)cs2)=NC(=O)c2ccc3c(c2)N(C[C@@H]2CC[C@H]21)C[C@@]1(CCCc2cc(Cl)ccc21)CO3 [Example 434] | 6.39 | 9.35 |
| CO[C@H]1/C=C/C[C@H](C)C[S@@](=O)(NC(=O)C2CC3(CCOCC3)C2)=NC(=O)c2ccc3c(c2)N(C[C@@H]2CC[C@H]21)C[C@@]1(CCCc2cc(Cl)ccc21)CO3 [Example 435] | 6.78 | 9.94 |
| CO[C@H]1/C=C/C[C@H](C)C[S@@](=O)(NC(=O)C2CC3(CCC3)C2)=NC(=O)c2ccc3c(c2)N(C[C@@H]2CC[C@H]21)C[C@@]1(CCCc2cc(Cl)ccc21)CO3 [Example 436] | 6.12 | 9.05 |
| CO[C@H]1/C=C/C[C@H](C)C[S@@](=O)(NC(=O)NC2CC3(C2)CC(F)(F)C3)=NC(=O)c2ccc3c(c2)N(C[C@@H]2CC[C@H]21)C[C@@]1(CCCc2cc(Cl)ccc21)CO3 [Example 437] | 6.91 | 9.52 |
| COC(=O)N1CC[C@@H](C(=O)N[S@@]2(=O)=NC(=O)c3ccc4c(c3)N(C[C@@H]3CC[C@H]3[C@@H](OC)/C=C/C[C@H](C)C2)C[C@@]2(CCCc3cc(Cl)ccc32)CO4)C1 [Example 438] | 6.56 | 9.73 |
| COC(=O)N1CC[C@H](C(=O)N[S@@]2(=O)=NC(=O)c3ccc4c(c3)N(C[C@@H]3CC[C@H]3[C@@H](OC)/C=C/C[C@H](C)C2)C[C@@]2(CCCc3cc(Cl)ccc32)CO4)C1 [Example 439] | 6.10 | 9.86 |
| CO[C@H]1/C=C/C[C@H](C)C[S@@](=O)(NC(=O)N[C@@H]2CC2(F)F)=NC(=O)c2ccc3c(c2)N(C[C@@H]2CC[C@H]21)C[C@@]1(CCCc2cc(Cl)ccc21)CO3 [Example 440] | 6.55 | 10.29 |
| CO[C@H]1/C=C/C[C@H](C)C[S@@](=O)(NC(=O)Nc2ccccn2)=NC(=O)c2ccc3c(c2)N(C[C@@H]2CC[C@H]21)C[C@@]1(CCCc2cc(Cl)ccc21)CO3 [Example 441] | 6.43 | 9.65 |
| CO[C@H]1/C=C/C[C@H](C)C[S@@](=O)(NC(=O)NC2CCOCC2)=NC(=O)c2ccc3c(c2)N(C[C@@H]2CC[C@H]21)C[C@@]1(CCCc2cc(Cl)ccc21)CO3 [Example 442] | 6.91 | 9.87 |
| CO[C@H]1/C=C/C[C@H](C)C[S@@](=O)(NC(=O)Nc2ccnc(C)c2)=NC(=O)c2ccc3c(c2)N(C[C@@H]2CC[C@H]21)C[C@@]1(CCCc2cc(Cl)ccc21)CO3 [Example 443] | 6.79 | 9.73 |

| SMILES | pEC50 [1] | pIC50 [2] |
| --- | --- | --- |
| CO[C@H]1/C=C/C[C@H](C)C[S@@](=O)(NC(=O)c2cc(C)sn2)=NC(=O)c2ccc3c(c2)N(C[C@@H]2CC[C@H]21)C[C@@]1(CCCc2cc(Cl)ccc21)CO3 [Example 444] | 6.77 | 10.00 |
| CO[C@H]1/C=C/C[C@H](C)C[S@@](=O)(NC(=O)COC2CC2)=NC(=O)c2ccc3c(c2)N(C[C@@H]2CC[C@H]21)C[C@@]1(CCCc2cc(Cl)ccc21)CO3 [Example 445] | 6.68 | 10.04 |
| CO[C@H]1/C=C/C[C@H](C)C[S@@](=O)(NC(=O)[C@@]23COCC2C3)=NC(=O)c2ccc3c(c2)N(C[C@@H]2CC[C@H]21)C[C@@]1(CCCc2cc(Cl)ccc21)CO3 (some centres unmarked) [Example 446] | 6.76 | 9.83 |
| CO[C@H]1/C=C/C[C@H](C)C[S@@](=O)(NC(=O)[C@]23COCC2C3)=NC(=O)c2ccc3c(c2)N(C[C@@H]2CC[C@H]21)C[C@@]1(CCCc2cc(Cl)ccc21)CO3 (some centres unmarked) [Example 447] | 6.79 | 9.88 |
| CO[C@H]1/C=C/C[C@H](C)C[S@@](=O)(NC(=O)c2cn(C)nc2C(F)F)=NC(=O)c2ccc3c(c2)N(C[C@@H]2CC[C@H]21)C[C@@]1(CCCc2cc(Cl)ccc21)CO3 [Example 448] | 6.60 | 9.93 |
| CO[C@H]1/C=C/C[C@H](C)C[S@@](=O)(NC(=O)N[C@@H]2[C@@H]3COC[C@@H]32)=NC(=O)c2ccc3c(c2)N(C[C@@H]2CC[C@H]21)C[C@@]1(CCCc2cc(Cl)ccc21)CO3 [Example 449] | 6.83 | 9.88 |
| CO[C@H]1/C=C/C[C@H](C)C[S@@](=O)(NC(=O)c2cn(C)c3nccnc23)=NC(=O)c2ccc3c(c2)N(C[C@@H]2CC[C@H]21)C[C@@]1(CCCc2cc(Cl)ccc21)CO3 [Example 450] | 6.78 | 9.63 |
| COc1c(C(=O)N[S@@]2(=O)=NC(=O)c3ccc4c(c3)N(C[C@@H]3CC[C@H]3[C@@H](OC)/C=C/C[C@H](C)C2)C[C@@]2(CCCc3cc(Cl)ccc32)CO4)cn2c1C[C@H](OC)C2 [Example 451] | 6.79 | 9.28 |
| CO[C@H]1/C=C/C[C@H](C)C[S@@](=O)(NC(=O)N[C@H]2C[C@H](O)C2)=NC(=O)c2ccc3c(c2)N(C[C@@H]2CC[C@H]21)C[C@@]1(CCCc2cc(Cl)ccc21)CO3 [Example 452] | 6.55 | 10.35 |
| CO[C@H]1/C=C/C[C@H](C)C[S@@](=O)(NC(=O)N[C@H]2C[C@@](O)(C(F)(F)F)C2)=NC(=O)c2ccc3c(c2)N(C[C@@H]2CC[C@H]21)C[C@@]1(CCCc2cc(Cl)ccc21)CO3 [Example 453] | 7.01 | 10.04 |
| CNC(=O)N[S@@]1(=O)=NC(=O)c2ccc3c(c2)N(C[C@@H]2CC[C@H]2[C@@H](OC)/C=C/C[C@H](C)C1)C[C@@]1(CCCc2cc(Cl)ccc21)CO3 [Example 454] | 6.84 | 10.01 |
| CO[C@H]1/C=C/C[C@H](C)C[S@@](=O)(NC(=O)c2cc3n(c2)CCN(S(C)(=O)=O)C3)=NC(=O)c2ccc3c(c2)N(C[C@@H]2CC[C@H]21)C[C@@]1(CCCc2cc(Cl)ccc21)CO3 [Example 455] | 6.84 | 9.83 |
| CO[C@H]1/C=C/C[C@H](C)C[S@@](=O)(NC(=O)N2CC3(CCOC3)C2)=NC(=O)c2ccc3c(c2)N(C[C@@H]2CC[C@H]21)C[C@@]1(CCCc2cc(Cl)ccc21)CO3 [Example 456] | 6.76 | 10.00 |
| CO[C@H]1/C=C/C[C@H](C)C[S@@](=O)(NC(=O)N2CCn3cccc3C2)=NC(=O)c2ccc3c(c2)N(C[C@@H]2CC[C@H]21)C[C@@]1(CCCc2cc(Cl)ccc21)CO3 [Example 457] | 6.41 | 10.07 |
| COc1nnccc1C(=O)N[S@@]1(=O)=NC(=O)c2ccc3c(c2)N(C[C@@H]2CC[C@H]2[C@@H](OC)/C=C/C[C@H](C)C1)C[C@@]1(CCCc2cc(Cl)ccc21)CO3 [Example 458] | 6.42 | 10.10 |
| COc1nc(OC)c(C(=O)N[S@@]2(=O)=NC(=O)c3ccc4c(c3)N(C[C@@H]3CC[C@H]3[C@@H](OC)/C=C/C[C@H](C)C2)C[C@@]2(CCCc3cc(Cl)ccc32)CO4)c(OC)n1 [Example 459] | 6.71 | 10.07 |
| CO[C@H]1/C=C/C[C@H](C)C[S@@](=O)(NC(=O)c2cnc(C)nc2)=NC(=O)c2ccc3c(c2)N(C[C@@H]2CC[C@H]21)C[C@@]1(CCCc2cc(Cl)ccc21)CO3 [Example 461] | 6.82 | 10.06 |
| COc1nc(N2CCOCC2)ncc1C(=O)N[S@@]1(=O)=NC(=O)c2ccc3c(c2)N(C[C@@H]2CC[C@H]2[C@@H](OC)/C=C/C[C@H](C)C1)C[C@@]1(CCCc2cc(Cl)ccc21)CO3 [Example 462] | 6.46 | 9.60 |

Reference: US10703733B2, “MCL-1 inhibitors” (Gilead Sciences, Inc., priority 2018, dated 2020)
